According to patent publication US9265773B2, “Tetracyclic heterocycle compounds and methods of use thereof for the treatment of viral diseases” (priority 2011, dated 2016):

Columns and labels:
HCV replicon genotype 1a = assay: microbe, parasite or virus in culture; assay type: cell-based; settings: genotype 1a replicon cells, incubated 96 hours, NS3/4A ELISA readout
HCV replicon genotype 1b = assay: microbe, parasite or virus in culture; assay type: cell-based; settings: genotype 1b replicon cells, incubated 96 hours, NS3/4A ELISA readout

SMILES	IC50 (HCV replicon genotype 1a) [nM]	IC50 (HCV replicon genotype 1b) [nM]	IC50 (HCV replicon genotype 1a; Hepatitis C virus, 96 h) [nM]	IC50 (HCV replicon genotype 1b; Hepatitis C virus, 96 h) [nM]
CNC(=O)c1c(-c2ccc(F)cc2)oc2cc(N(CC(C)O)S(C)(=O)=O)c(-c3ccc4c(n3)-c3cc5c(F)cccc5n3CO4)cc12 (stereo not drawn) [Compound 203]	2.9	8.9	–	–
CNC(=O)c1c(-c2ccc(F)cc2)oc2cc(N(CCC3(O)CC3)S(C)(=O)=O)c(-c3ccc4c(n3)-c3cc5c(F)cccc5n3CO4)cc12 [Compound 204]	–	–	8.1	19
CNC(=O)c1c(-c2ccc(F)cc2)oc2cc(N(Cc3ccc(B(O)O)cc3)S(C)(=O)=O)c(-c3ccc4c(n3)-c3cc5c(F)cccc5n3CO4)cc12 [Compound 205, (4-((N-(5-(11-fluoro-6H-pyrido[2′,3′:5,6][1,3]oxazino[3,4-a]indol-2-yl)-2-(4-fluorophenyl)-3-(methylcarbamoyl)benzofuran-6-yl)methylsulfonamido)methyl)phenyl) boronic acid]	–	–	14	15
CCOC(=O)C(O)c1c2n(c3cccc(F)c13)COc1ccc(-c3cc4c(C(=O)NC)c(-c5ccc(F)cc5)oc4cc3N(C)S(C)(=O)=O)nc1-2 (stereo not drawn) [Compound 206, ethyl 2-(11-fluoro-2-(2-(4-fluorophenyl)-3-(methylcarbamoyl)-6-(N-methylmethylsulfonamido)benzofuran-5-yl)-6H-pyrido[2′,3′:5,6][1,3]oxazino[3,4-a]indol-12-yl)-2-hydroxyacetate]	–	–	15	23
CNC(=O)c1c(-c2ccc(F)cc2)oc2cc(N(C)S(C)(=O)=O)c(-c3ccc4c(n3)-c3c(C(O)C(=O)O)c5c(F)cccc5n3CO4)cc12 (stereo not drawn) [Compound 207, 2-(11-fluoro-2-(2-(4-fluorophenyl) -3-(methylcarbamoyl)-6-(N-methylmethylsulfonamido)benzofuran-5-yl)-6H-pyrido[2′,3′:5,6][1,3]oxazino[3,4-a]indol-12-yl)-2-hydroxyacetic acid]	–	–	3.3	2.1
CCOC(=O)N(C)C(=O)c1c(-c2ccc(F)cc2)oc2cc(N(C)S(C)(=O)=O)c(-c3ccc4c(n3)-c3cc5c(F)cccc5n3CO4)cc12 [Compound 208, Ethyl (5-(11-fluoro-6H-pyrido[2′,3′:5,6][1,3]oxazino[3,4-a]indol-2-yl)-2-(4-fluorophenyl)-6-(N-methylmethylsulfonamido)benzofuran-3-carbonyl)(methyl)carbamate]	–	–	42	122
COC(=O)C(=O)N(C)C(=O)c1c(-c2ccc(F)cc2)oc2cc(N(C)S(C)(=O)=O)c(-c3ccc4c(n3)-c3cc5c(F)cccc5n3CO4)cc12 [Compound 209, methyl 2-(5-(11-fluoro-6H-pyrido[2′,3′:5,6][1,3]oxazino[3,4-a]indol-2-yl)-2-(4-fluorophenyl)-N-methyl-6-(N-methylmethylsulfonamido)benzofuran-3-carboxamido)-2-oxoacetate]	–	–	0.6	2.6
CC(=O)N(C)C(=O)c1c(-c2ccc(F)cc2)oc2cc(N(C)S(C)(=O)=O)c(-c3ccc4c(n3)-c3cc5c(F)cccc5n3CO4)cc12 [Compound 210, N-acetyl-5-(11-fluoro-6H-pyrido[2′,3′:5,6][1,3]oxazino[3,4-a]indol-2-yl)-2-(4-fluorophenyl)-N-methyl-6-(N-methylmethylsulfonamido)benzofuran-3-carboxamide]	–	–	2.1	4.2
CNC(=O)c1c(-c2ccc(F)cc2)oc2cc(N(CCN3CCOCC3)S(C)(=O)=O)c(-c3ccc4c(n3)-c3cc5c(F)cccc5n3CO4)cc12 [Compound 211, 5-(11-fluoro-6H-pyrido[2′,3′:5,6][1,3]oxazino[3,4-a]indol-2-yl)-2-(4-fluorophenyl)-N-methyl-6-(N-(2-morpholinoethyl)methylsulfonamido)benzofuran-3-carboxamide]	–	–	6.5	12
